From US5801270A, “Amine derivative and detergent composition containing the same” (Kao Corporation, priority 1993, dated 1998)

Experiments:
[1] = Irritativeness and feeling of the compound on the user's skin and hair; settings: in words
[2] = Cytotoxic effect on SIRC cells (Giemsa stain, 48 hours); type: cell-based, rabbit; settings: rabbit, 48 hours culture, 655 nm, read-out: IC50
Method: (§1) The cytotoxic effect of the compounds according to the present invention was tested in accordance with the following method.
(§2) Four days prior to exposure to a substance to be tested, SIRC cells (established cell line of fibroblasts in the epithelial parenchymal layer of a rabbit eye) were disseminated on a 96-well plate in a concentration of 3×10^3 cells/well to culture them under conditions of 37° C. and 5% CO2.
(§3) The test substance was dissolved in physiological saline to give a concentration of 1 wt. % or 10 wt. %. This solution was diluted with a culture medium. After the thus-obtained test solution was added to the culture solution to conduct culture for 48 hours, the culture solution was washed twice with PBS (pH 7.4) and fixed in methanol to stain with a Giemsa stain. After washing and drying, a mixture of 1N HCl/ethanol (1/9) was added to extract the stained solution, followed by measurement by means of a microplate reader (655 nm). The concentration at which […] was expressed as IC50 (ppm).

SIRC cells = test: as above; type: cell-based, rabbit; settings: 48 hours culture, 655 nm
Method: as §1, §2, §3

Compound	irritativeness [1]	CC50 at 48 h [2]	IC50 (SIRC cells)
CCCCCCCCN(CC(O)CN(CCCCCCCC)C(=O)CCC(=O)[O-])CC(O)CN(CCCCCCCC)C(=O)CCC(=O)[O-].[Na+].[Na+] (stereo not drawn)	low	–	–
CCCCCCCCCCCCN(CCOS(=O)(=O)O)CC(CN(CCCCCCCCCCCC)CC(CN(CCCCCCCCCCCC)CCOS(=O)(=O)O)OS(=O)(=O)O)OS(=O)(=O)O (stereo not drawn) [Example 10, sodium 3,7,11-tridodecyl-3,7,11-triaza-1,5,9,13-tridecanetetrasulfate]	low	790 µg/mL	–
CCCCCCCCCCCCOS(=O)(=O)[O-].[Na+] [Sodium dodecyl sulfate, reference compound]	–	82 µg/mL	–
CCCCCCCCCCCCN(CCOS(=O)(=O)O)CC(CN(CCCCCCCCCCCC)CC(CN(CCCCCCCCCCCC)CC(CN(CCCCCCCCCCCC)CC(CN(CCCCCCCCCCCC)CCOS(=O)(=O)O)OS(=O)(=O)O)OS(=O)(=O)O)OS(=O)(=O)O)OS(=O)(=O)O (stereo not drawn) [Example 11, sodium 3,7,11,15,19-pentadodecyl-3,7,11,15,19-pentaaza-1,5,9,13,17,21-heneicosanehexasulfate]	low	–	> 1000 ppm
CCCCCCCCN(CC(=O)O)CC(O)CN(CCCC)CC(O)CN(CCCCCCCC)CC(=O)O (stereo not drawn) [Example 8, 6-butyl-4,8-dihydroxy-2,10-dioctyl-2,6,10-triaza-1,11-undecanedicarboxylicacid]	low	–	–
CCCCCCCCN(CC(O)CN(CCCCCCCC)C(=O)CC(C(=O)O)S(=O)(=O)[O-])CC(O)CN(CCCCCCCC)C(=O)CC(C(=O)O)S(=O)(=O)[O-].[Na+].[Na+] (stereo not drawn)	low	–	–
6-butyl-4,8-dihydroxy-2,10-dioctyl-2,6,10-triaza-1,1,11,11-undecanetetracarboxylic acid [Example 12]	low	–	–
